{
  "source": "paper PMC2363616",
  "about": "“Mapping the HLA-A24-restricted T-cell epitope peptide from a tumour-associated antigen HER2 / neu: possible immunotherapy for colorectal carcinomas” (British Journal of Cancer, 2001)",
  "system": "CD8+ T cells of HLA-A24 healthy donors",
  "experiment": "Primary CTL induction with peptide-pulsed autologous DCs, cytotoxicity tested on peptide-pulsed TISI",
  "format": "cell-based, human",
  "conditions": "data not shown",
  "data": [
    {"compound": "CC(C)C[C@H](NC(=O)[C@H](CC(C)C)NC(=O)[C@H](C)NC(=O)[C@H](CC(C)C)NC(=O)[C@H](CC(C)C)NC(=O)[C@H](CC(C)C)NC(=O)CNC(=O)[C@H](Cc1c[nH]c2ccccc12)NC(=O)[C@@H](N)CCCNC(=N)N)C(=O)O", "note": "[HE1]", "values": [
      {"measurement": "CTL induction activity (cytotoxicity of peptide-stimulated CTLs against the peptide-pulsed TISI)", "result": "showed the cytotoxicity against the peptide- pulsed TISI"}
    ]}
  ]
}
